Starred links: 1 amine or outer side, 2 acyl side, 3 side chain; linkers in the order of their positions; H or OH if unused. Residues, ends and D or L forms follow the SMILES beside them. *: point of attachment. C20 diacid = O=C(O)CCCCCCCCCCCCCCCCCCC(=O)*; C18 diacid = O=C(O)CCCCCCCCCCCCCCCCC(=O)*; γGlu = O=C(O)[C@H](CCC(=O)[*:2])N[*:1]
Key:
[1] = target: T1, human calcitonin receptor (hCTR) (Homo sapiens, UniProt P30988); assay: Human calcitonin receptor (hCTR) in vitro potency assay, CRE-luciferase reporter in BHK cells; type: cell-based; conditions: BHK hCTR/CRE-Luc cells, 3 hours incubation, assay buffer with 1% ovalbumin; read-out: hCalcR potency, EC50
T1 construct: host or cells: BHK (Baby Hamster Kidney), Hollex-1 cell line
T1 sequence (P30988 25-474): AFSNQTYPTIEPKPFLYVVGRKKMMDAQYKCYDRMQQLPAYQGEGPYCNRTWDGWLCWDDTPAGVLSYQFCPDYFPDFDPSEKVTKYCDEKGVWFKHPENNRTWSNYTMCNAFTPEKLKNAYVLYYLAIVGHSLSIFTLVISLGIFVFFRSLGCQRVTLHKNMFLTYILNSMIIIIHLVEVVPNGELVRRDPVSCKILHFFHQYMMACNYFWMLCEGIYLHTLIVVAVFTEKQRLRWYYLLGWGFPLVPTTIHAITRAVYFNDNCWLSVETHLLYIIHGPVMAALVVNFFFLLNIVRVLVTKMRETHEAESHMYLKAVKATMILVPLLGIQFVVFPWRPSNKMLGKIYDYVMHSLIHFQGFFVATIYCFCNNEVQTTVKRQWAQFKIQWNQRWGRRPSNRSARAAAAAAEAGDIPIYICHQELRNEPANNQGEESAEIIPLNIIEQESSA
How it was run: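 BHK cells stably co-expressing human calcitonin receptor and a CRE-luciferase reporter, seeded the day before, were exposed to 7-fold serial dilutions (7 concentrations, often starting near 10 nM) in DMEM/HEPES/1% ovalbumin buffer for 3 h at 37 °C. Luminescence was then read after SteadyLite Plus addition.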

[2] = target: T2, human amylin receptor (hAMYR3) (Homo sapiens, UniProt O60896+P30988); assay: Human amylin receptor (hAMYR3) in vitro potency assay, CRE-luciferase reporter in BHK cells; type: cell-based; conditions: BHK hAMYR3/CRE-Luc cells, 3 hours incubation, assay buffer with 1% ovalbumin
T2 construct: host or cells: BHK (Baby Hamster Kidney), Hollex-1 cell line further transfected with RAMP3
T2 sequence (O60896 24-148, one chain of several): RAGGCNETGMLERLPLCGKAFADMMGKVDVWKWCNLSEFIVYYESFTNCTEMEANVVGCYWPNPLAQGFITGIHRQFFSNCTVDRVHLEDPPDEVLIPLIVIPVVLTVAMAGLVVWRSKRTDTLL
How it was run: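 BHK cells stably expressing human calcitonin receptor (a) plus RAMP3 and a CRE-luciferase reporter, seeded overnight, then exposed to 7-point 7-fold dilutions (often from ~10 nM) in DMEM/HEPES buffer with 1% ovalbumin for 3 h at 37 °C. Luciferase luminescence read after SteadyLite Plus addition.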

| SMILES | EC50 [1] [pM] | EC50 [2] [pM] |
| --- | --- | --- |
| CC[C@H](C)[C@H](NC(=O)[C@H](C)NC(=O)CNC(=O)[C@H](Cc1ccccc1)NC(=O)[C@@H]1CCCN1C(=O)[C@H](CC(=O)O)NC(=O)[C@H](CO)NC(=O)[C@H](CO)NC(=O)[C@H](Cc1c[nH]cn1)NC(=O)[C@H](Cc1c[nH]cn1)NC(=O)[C@H](CC(C)C)NC(=O)[C@H](Cc1ccccc1)NC(=O)[C@H](CCC(=O)O)NC(=O)[C@H](C)NC(=O)[C@H](CC(C)C)NC(=O)[C@H](CCCNC(=N)N)NC(=O)[C@H](CCC(N)=O)NC(=O)[C@@H](NC(=O)[C@H](CCC(N)=O)NC(=O)[C@H](C)NC(=O)[C@@H](NC(=O)[C@H](CO)NC(=O)[C@H](CC(C)C)NC(=O)[C@H](CCC(=O)O)NC(=O)CNC(=O)[C@H](C)NC(=O)CC[C@H](NC(=O)CCCCCCCCCCCCCCCCC(=O)O)C(=O)O)[C@@H](C)O)[C@@H](C)O)C(=O)N1CCC[C@H]1C(=O)N[C@@H](CO)C(=O)N[C@@H](CO)C(=O)N[C@H](C(=O)N[C@@H](CC(=O)O)C(=O)N[C@H](C(=O)NCC(=O)N1CCC[C@H]1C(=O)N[C@@H](CC(=O)O)C(=O)N[C@H](C(=O)N1CCC[C@H]1C(N)=O)[C@@H](C)O)C(C)C)[C@@H](C)O [Compound 11, N^1-[(4S)-4-carboxy-4-(17-carboxyheptadecanoylamino)butanoyl]-[Ala1,Gly2,Glu3,Leu4,Ser5,Ala7,Gln8,Glu14,His17,Asp21,Pro22,Pro27,Asp31,Pro34,Asp35,Pro37]-human amylin] ({C18 diacid-γGlu}-AGELSTAQTQRLAEFLHHSSDPFGAIPSSTDVGPDTP-NH2) | 1.58 | 2.43 |
| CC[C@H](C)[C@H](NC(=O)[C@@H]1CCCN1C(=O)CNC(=O)[C@H](Cc1ccccc1)NC(=O)[C@H](CC(N)=O)NC(=O)[C@H](CC(=O)O)NC(=O)[C@H](CO)NC(=O)[C@H](CO)NC(=O)[C@H](Cc1c[nH]cn1)NC(=O)[C@H](Cc1c[nH]cn1)NC(=O)[C@H](CC(C)C)NC(=O)[C@H](Cc1ccccc1)NC(=O)[C@H](CCC(=O)O)NC(=O)[C@H](C)NC(=O)[C@H](CC(C)C)NC(=O)[C@H](CCCNC(=N)N)NC(=O)[C@H](C)NC(=O)[C@@H](NC(=O)[C@H](CCC(N)=O)NC(=O)[C@H](C)NC(=O)[C@@H](NC(=O)[C@H](CO)NC(=O)[C@H](CC(C)C)NC(=O)[C@H](CO)NC(=O)CNC(=O)[C@H](C)NC(=O)CC[C@H](NC(=O)CCCCCCCCCCCCCCCCC(=O)O)C(=O)O)[C@@H](C)O)[C@@H](C)O)C(=O)N[C@@H](CC(C)C)C(=O)N1CCC[C@H]1C(=O)N1CCC[C@H]1C(=O)N[C@H](C(=O)N[C@@H](CC(=O)O)C(=O)N[C@H](C(=O)NCC(=O)N[C@@H](CO)C(=O)N[C@@H](CC(N)=O)C(=O)N[C@H](C(=O)N1CCC[C@H]1C(N)=O)[C@@H](C)O)C(C)C)[C@@H](C)O [Compound 13, N^1-[(4S)-4-carboxy-4-(17-carboxyheptadecanoylamino)butanoyl]-[Ala1,Gly2,Ser3,Leu4,Ser5,Ala7,Gln8,Ala10,Glu14,His17,Asp21,Pro25,Pro28,Pro29,Asp31,Pro37]-human amylin] ({C18 diacid-γGlu}-AGSLSTAQTARLAEFLHHSSDNFGPILPPTDVGSNTP-NH2) | 1.58 | 1.36 |
| CC[C@H](C)[C@H](NC(=O)[C@@H]1CCCN1C(=O)CNC(=O)[C@H](Cc1ccccc1)NC(=O)[C@H](Cc1c[nH]cn1)NC(=O)[C@H](Cc1c[nH]cn1)NC(=O)[C@H](CC(C)C)NC(=O)[C@H](Cc1ccccc1)NC(=O)[C@H](CCC(=O)O)NC(=O)[C@H](C)NC(=O)[C@H](CC(C)C)NC(=O)[C@H](CCCNC(=N)N)NC(=O)[C@H](CCC(N)=O)NC(=O)[C@@H](NC(=O)[C@H](CCC(N)=O)NC(=O)[C@H](C)NC(=O)[C@@H](NC(=O)[C@H](CO)NC(=O)[C@H](CC(C)C)NC(=O)[C@H](CO)NC(=O)CNC(=O)[C@H](C)NC(=O)CC[C@H](NC(=O)CC[C@H](NC(=O)CCCCCCCCCCCCCCCCC(=O)O)C(=O)O)C(=O)O)[C@@H](C)O)[C@@H](C)O)C(=O)N[C@@H](CC(C)C)C(=O)N1CCC[C@H]1C(=O)N1CCC[C@H]1C(=O)N[C@H](C(=O)N[C@@H](CC(=O)O)C(=O)N[C@H](C(=O)NCC(=O)N[C@@H](CO)C(=O)N[C@@H](CCC(=O)O)C(=O)N[C@H](C(=O)N1CCC[C@H]1C(N)=O)[C@@H](C)O)C(C)C)[C@@H](C)O [Compound 30, N^1-[(4S)-4-carboxy-4-[[(4S)-4-carboxy-4-(17-carboxyheptadecanoylamino)butanoyl]amino]butanoyl]-[Ala1,Gly2,Ser3,Leu4,Ser5,Ala7,Gln8,Glu14,His17,Pro25,Pro28,Pro29,Asp31,Glu35,Pro37],des-(19-22)-human amylin] ({C18 diacid-γGlu-γGlu}-AGSLSTAQTQRLAEFLHHFGPILPPTDVGSETP-NH2) | 2.07 | 2.37 |

Second part, the compound after the results:

| EC50 [1] [pM] | EC50 [2] [pM] | SMILES |
| --- | --- | --- |
| 1.41 | 1.05 | CC[C@H](C)[C@H](NC(=O)[C@H](C)NC(=O)CNC(=O)[C@H](Cc1ccccc1)NC(=O)[C@@H]1CCCN1C(=O)[C@H](CC(=O)O)NC(=O)[C@H](CO)NC(=O)[C@H](CO)NC(=O)[C@H](Cc1c[nH]cn1)NC(=O)[C@H](Cc1c[nH]cn1)NC(=O)[C@H](CC(C)C)NC(=O)[C@H](Cc1ccccc1)NC(=O)[C@H](CCC(=O)O)NC(=O)[C@H](C)NC(=O)[C@H](CC(C)C)NC(=O)[C@H](CCCNC(=N)N)NC(=O)[C@H](C)NC(=O)[C@@H](NC(=O)[C@H](CCC(N)=O)NC(=O)[C@H](C)NC(=O)[C@@H](NC(=O)[C@H](CO)NC(=O)[C@H](CC(C)C)NC(=O)[C@H](Cc1c[nH]cn1)NC(=O)[C@H](CO)NC(=O)[C@H](C)NC(=O)CC[C@H](NC(=O)CCCCCCCCCCCCCCCCCCC(=O)O)C(=O)O)[C@@H](C)O)[C@@H](C)O)C(=O)N1CCC[C@H]1C(=O)N[C@@H](CO)C(=O)N[C@@H](CO)C(=O)N[C@H](C(=O)N[C@@H](CC(=O)O)C(=O)N[C@H](C(=O)NCC(=O)N1CCC[C@H]1C(=O)N[C@@H](CC(=O)O)C(=O)N[C@H](C(=O)N1CCC[C@H]1C(N)=O)[C@@H](C)O)C(C)C)[C@@H](C)O [Compound 39, N^1-[(4S)-4-carboxy-4-(19-carboxynonadecanoylamino)butanoyl]-[Ala1,Ser2,His3,Leu4,Ser5,Ala7,Gln8,Ala10,Glu14,His17,Asp21,Pro22,Pro27,Asp31,Pro34,Asp35,Pro37]-human amylin] ({C20 diacid-γGlu}-ASHLSTAQTARLAEFLHHSSDPFGAIPSSTDVGPDTP-NH2) |
| 2.19 | 1.31 | CC[C@H](C)[C@H](NC(=O)[C@H](C)NC(=O)CNC(=O)[C@H](Cc1ccccc1)NC(=O)[C@@H]1CCCN1C(=O)[C@H](CC(=O)O)NC(=O)[C@H](CO)NC(=O)[C@H](CO)NC(=O)[C@H](Cc1c[nH]cn1)NC(=O)[C@H](Cc1c[nH]cn1)NC(=O)[C@H](CC(C)C)NC(=O)[C@H](Cc1ccccc1)NC(=O)[C@H](CCC(=O)O)NC(=O)[C@H](C)NC(=O)[C@H](CC(C)C)NC(=O)[C@H](CCCNC(=N)N)NC(=O)[C@H](CCC(N)=O)NC(=O)[C@@H](NC(=O)[C@H](CCC(N)=O)NC(=O)[C@H](C)NC(=O)[C@@H](NC(=O)[C@H](CO)NC(=O)[C@H](CC(C)C)NC(=O)[C@H](Cc1c[nH]cn1)NC(=O)[C@H](CO)NC(=O)[C@H](C)NC(=O)CC[C@H](NC(=O)CCCCCCCCCCCCCCCCC(=O)O)C(=O)O)[C@@H](C)O)[C@@H](C)O)C(=O)N1CCC[C@H]1C(=O)N[C@@H](CO)C(=O)N[C@@H](CO)C(=O)N[C@H](C(=O)N[C@@H](CC(=O)O)C(=O)N[C@H](C(=O)NCC(=O)N1CCC[C@H]1C(=O)N[C@@H](CC(N)=O)C(=O)N[C@H](C(=O)N1CCC[C@H]1C(N)=O)[C@@H](C)O)C(C)C)[C@@H](C)O [Compound 26, N^1-[(4S)-4-carboxy-4-(17-carboxyheptadecanoylamino)butanoyl]-[Ala1,Ser2,His3,Leu4,Ser5,Ala7,Gln8,Glu14,His17,Asp21,Pro22,Pro27,Asp31,Pro34,Pro37]-human amylin] ({C18 diacid-γGlu}-ASHLSTAQTQRLAEFLHHSSDPFGAIPSSTDVGPNTP-NH2) |
